Where two headings read alike, the source gives them in different places. Bridge positions count the residues as written; N and C are the ends. Ends that are not written are not given here.
Key:
bacteria = details: cited from earlier work; for antibacterial activity, in words: N-terminal deletion fragment of thanatin
Description: Antimicrobial peptides (AMPs) are found in all life forms and constitute the first line of defense as a part of innate immunity in higher organisms, including humans. As a mode of action, a significant number of cationic AMPs disrupt membrane structures including the LPS–outer membrane of Gram-negative bacteria. Thanatin, a 21-residue antimicrobial peptide, was originally identified from the hemolymph of the spined soldier bug, or Podisus maculiventris. […] Further, to understand residue length-dependent antibacterial activity, here, we investigated a 15-residue N-terminal peptide fragment, or PM15 (PIIYCNRRTGKCQRM), of thanatin. We also examined two analog peptides, PM15Y and PM15A, to replace residue Pro. […] In this study, we have examined 15-residue thanatin-derived peptide, or PM15, and two analogs, PM15Y and PM15A. PM15 and analog peptides are able to exert antibacterial activity against Gram-negative and Gram ...

[1] = ITC of peptide/LPS binding; design: species or system E. coli; details: 10 mM sodium phosphate, pH 7.0, 37 °C
Description: (§1) Chemically synthesized PM15, PM15Y and PM15A peptides were obtained from GLBiochem^TM (Shanghai, China). Molecular weight of the peptides was confirmed by mass spectrometry. Bacterial strains were obtained from the American Type Culture Collection (ATCC, Manassas, VA, USA). Mueller–Hinton (MH) broth was purchased from Sigma-Aldrich^TM (Saint Louis, MO, USA) and Millipore-Sigma^TM (Saint Louis, MO, USA). 1-N-phenylnaphthylamine (NPN) and LPS (E. coli O111:B4) were purchased from Sigma Aldrich^TM.
(§2) ITC experiments were conducted by using a MicroCal ITC 200 calorimeter. Samples, LPS and peptides, were prepared in 10 mM sodium phosphate buffer, pH 7.0. LPS (50 µM) was placed in the sample cell, while the syringe contained 1 mM of peptide. In an individual experiment, 2.0 μL of peptide was titrated, with a total of 20 titrations, into the sample cell containing LPS at 37 °C with stirring speed adjusted to 750 rpm. For ITCs of peptides/LptAm, samples were prepared in 50 mM sodium phosphate buffer, 150 mM NaCl, pH 7.0. 25 μM of LptAm was loaded into the sample cell, whereas 250 μM of PM15 and PM15Y was placed in the syringe. ITC titrations were performed with 20 injections of 2 µL of peptide into sample cells at 25 °C with a stirring speed of 750 rpm. ITC data were analyzed by using a single site binding model in MicroCal Origin 5.0 software to obtain the association constant (Ka) and enthalpy change (ΔH). Other binding parameters, namely, dissociation constant (Kd), Gibbs free energy (ΔG) and entropy change (TΔS), were determined indirectly from thermodynamics equations.

[2] = tested on: Acenobacter baumannii ATCC BAA-1798; type: cell-based, A. baumannii
Description: as §1
Bacterial growth inhibition of PM15, PM15A and PM15Y peptides was estimated against a panel of bacterial strains, namely, E. coli ATCC25922, S. enterica ATCC 14028, K. pneumoniae ATCC 13883, A. baumannii ATCC BAA-1798, S. pyogenes ATCC 19615 and E. faecalis ATCC 29212, by using the broth dilution assay determining minimum inhibitory concentration (MIC). Typically, overnight bacterial cultures were grown to mid-log phase at 37 °C and then diluted in Mueller–Hinton (MH) broth to OD600 ~ 0.002. […] Bacterial inhibition was determined by absorbance of 96-well plates at OD600 nm by using a Cytation spectrophotometer (Agilent, Santa Clara, CA, USA). The minimum peptide concentration showing complete inhibition of bacterial growth was determined as the MIC value.

LptAm protein of E. coli = target: T1, LptAm protein of E. coli (Escherichia coli, UniProt P0ADV1); test: ITC of peptide/LptAm binding; details: 50 mM sodium phosphate, 150 mM NaCl, pH 7.0, 25 °C
T1 construct: Expression and purification of LptAm protein (residues 28–159), with a six His-tag (SGRVEHHHHHH) at the C-terminus; made in house; host or cells: E. coli BL21
Description: as §2
Expression and purification of LptAm protein (residues 28–159), with a six His-tag (SGRVEHHHHHH) at the C-terminus, was carried out by using a previously established method. Briefly, plasmid DNA coding for LptAm gene was transformed into E. coli BL21 competent cells in LB agar plates containing 100 µg/mL of ampicillin. Protein production from expressing E. coli was induced by 1 mM isopropyl β-d-1-thiogalactopyranoside (IPTG) at an OD600 value of 0.6–0.8 at 18 °C for 18 h. The bacteria cells were centrifuged at 6000 rpm, 4 °C for 15 min and resuspended in a lysis buffer (100 mM HEPES, 500 mM NaCl, 10 mM imidazole, pH 8). Bacterial cells were lysed by sonication on ice at 25 Amp for 1 h, the lysate was centrifuged at 18,000 rpm, 4 °C for 30 min to remove cellular debris. The cell supernatant was applied through Ni-NTA (Qiagen, Germantown, TN, USA) beads thrice before washing it with increasing concentrations of imidazole. […]

E. coli cells = test: Zeta potential of E. coli cells (surface charge neutralization); type: cell-based; details: 10 mM sodium phosphate buffer, pH 7; peptide 2-32 μM; three replicates of 100 runs; Figure 1A
Description: All zeta potential measurements were performed on a Zeta Sizer Nano ZS (Malvern Instruments, Worcestershire, UK) equipped with a 633 nm He laser using zeta cells with gold electrodes. Typically, E. coli cells at a mid-log culture in LB media were harvested by centrifugation at 5000 rpm for 10 min and resuspended in 10 mM sodium phosphate buffer, pH 7. Zeta potential value of the bacterial cell suspension was determined for the free cells and with subsequent additions of peptide (2 μM to 32 μM). For each concentration, 100 runs were carried out and three replicates were executed.

[3] = tested on: bacterial load from model animals; details: ref [29],[30],[31]; cited from earlier work
Description: (§3) Antimicrobial peptides (AMPs) are found in all life forms and constitute the first line of defense as a part of innate immunity in higher organisms, including humans. As a mode of action, a significant number of cationic AMPs disrupt membrane structures including the LPS–outer membrane of Gram-negative bacteria. Thanatin, a 21-residue antimicrobial peptide, was originally identified from the hemolymph of the spined soldier bug, or Podisus maculiventris. Recent studies have discovered and characterized thanatin orthologous AMPs from other speci ...

[4] = tested on: LPS-outer membrane; LptA and LptD; details: cited from earlier work
Description: as §3

[5] = target: T2, LptAm, a monomeric functional (truncated) variant of LptA (E. coli, UniProt P0ADV1 28-159); test: ITC; 250 uM peptide in the syringe titrated into 25 uM LptAm in the cell; 50 mM sodium phosphate, 150 mM NaCl, pH 7.0, 25 °C; single site binding model; apparent Kd; details: both partners purified
T2 construct: LptA, periplasmic component of the LPS transport (Lpt) complex, E. coli, residues 28-159; no removal of the His tag is described; source: E. coli BL21, purified (Ni-NTA, size-exclusion chromatography)
T2 sequence (looked up): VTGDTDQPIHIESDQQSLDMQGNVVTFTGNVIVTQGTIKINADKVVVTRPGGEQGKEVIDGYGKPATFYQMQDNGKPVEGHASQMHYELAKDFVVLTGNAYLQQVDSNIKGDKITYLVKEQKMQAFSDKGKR

[6] = 1 mM peptide into 50 μM E. coli LPS (O111:B4), single site binding model
[7] = LPS, determined indirectly from thermodynamics equations

## IIYCNRRTGKCQRM [14-residue (IIYCNRRTGKCQRM) fragment, 14-residue (…) fragment of thanatin]
bacteria; ref [23],[36]
  antibacterial activity, in words: largely inactive
bacteria; ref [23],[36], listed as 14-residue thanatin
  antibacterial activity, in words: inactive peptide

## CC[C@H](C)[C@H](NC(=O)[C@@H]1CCCN1)C(=O)N[C@H](C(=O)N[C@@H](Cc1ccc(O)cc1)C(=O)N[C@H]1CSSC[C@@H](C(=O)N[C@@H](CCC(N)=O)C(=O)N[C@@H](CCCNC(=N)N)C(=O)N[C@@H](CCSC)C(=O)O)NC(=O)[C@H](CCCCN)NC(=O)CNC(=O)[C@H]([C@@H](C)O)NC(=O)[C@H](CCCNC(=N)N)NC(=O)[C@H](CCCNC(=N)N)NC(=O)[C@H](CC(N)=O)NC1=O)[C@@H](C)CC [PM15]
[1]; [6]
  Kd: 570 nM
  ΔH: -7.33 kcal/mol
[1]; [7]
  TΔS: 1.54 kcal/mol
  ΔG: -8.87 kcal/mol
[2]
  MIC: >16 (>16) µM
LptAm protein of E. coli; 250 μM peptide into 25 μM LptAm, single site binding model
  ΔH: -2.93 kcal/mol
LptAm protein of E. coli
  LptAm binding, in words: bind to LptAm with high affinity
LptAm protein of E. coli; LptAm, determined indirectly from thermodynamics equations
  TΔS: 6.23 kcal/mol
E. coli cells
  change in zeta potential of E. coli cells, in words: increase in zeta potential in a dose-dependent manner

## VPIIYCNRRTGKCQRM [16-residue fragment, 16-residue fragment (…) of thanatin]
bacteria; ref [23],[26],[31],[36]
  antibacterial activity, in words: potent antibacterial activity
bacteria; ref [23],[31],[36]
  antibacterial activity, in words: demonstrated antibacterial activity

## thanatin: 21-residue antimicrobial peptide from the hemolymph of the spined soldier bug, Podisus maculiventris
[3]
  clearing bacterial load, in words: promising activity profile
[4]; LptA and LptD, LPS transport, ref [33],[34],[35]
  inhibition of outer-membrane biogenesis, in words: inhibits outer-membrane biogenesis by disrupting protein complexes (LptA and LptD)
[4]; ref [27],[28],[32]
  interaction with LPS-outer membrane, in words: interacted with the LPS–outer membrane, facilitating the permeabilizing of the OM barrier
bacteria; Enterobacteriaceae, including drug-resistant strains, ref [26],[28],[30],[31]
  killing of Gram-negative bacteria, in words: extremely potent in selectively killing Gram-negative bacteria
bacteria; Gram-negative and Gram-positive bacteria and several strains of fungi, ref [23],[26],[27],[28],[29],[30]
  antimicrobial activity, in words: broad spectrum of antimicrobial activity

B1: PM15Y, P1 to Y substituted variant of PM15 (peptide)
chain: YIIYCNRRTGKCQRM
modifications: disulfide 5-12
[5]
  dH: -11.8 kcal/mol

B2: PM15, 15-residue N-terminal truncated analog of thanatin (peptide)
peptide: PIIYCNRRTGKCQRM
notes: thanatin, Podisus maculiventris (spined soldier bug), the C-terminal 15 residues of the 21-residue peptide (P7-M21 of thanatin); also called 15-residue thanatin peptide; source: synthetic peptide, bought: GLBiochem (Shanghai, China)
[5]
  Kd: 600 nM
  dH: -2.93 kcal/mol

— publication PMC10812785, “Structures, Interactions and Activity of the N-Terminal Truncated Variants of Antimicrobial Peptide Thanatin” (Antibiotics, 2024)
